The values below come from US10226470B2, “DGAT1 inhibition for treatment of demyelinating inflammatory disease” (The Board of Trustees of the Leland Stanford Junior …, priority 2014, dated 2019).

One series relates to WT CD4+CD25− cells. The series is described as follows: In vitro T regulatory cell induction, WT T cells. The class given is cell-based, mouse. The protocol: (§1) FIG. 7. DGAT1 limits retinoic acid-dependent Treg induction. WT or DGAT1 KO CD4+CD25− cells were incubated with T cell-depleted DGAT1 KO MLN cells in delipidated serum in the absence or presence of: soluble anti-CD3; TGFβ; retinol (ROL; 10 nM); A922500 (100 nM); or AM580 (10 nM) where indicated. After 3 days, TCRβ+ lymphocytes in the live gate were analyzed for expression of CD4 and Foxp3 by flow cytometry. (a) Representative FACS plots show the frequency of WT (top panels) or DGAT1 KO (bottom panels) CD4+Foxp3+ Tregs within the gate. (b) FACS data are summarized in bar graph form. Bars depict the mean+SEM of triplicate wells. Two independent experiments were performed.
(§2) This acyl-CoA:retinol acyltransferase (ARAT) function enables DGAT1 to convert retinol (vitamin A) to its storage retinyl ester form. RA, the active metabolite of vitamin A, supports Treg induction; however, T lymphocytes cannot synthesize RA autonomously. We hypothesized that T cell-expressed DGAT1 functions as an ARAT, diverting retinol to its storage ester form. This would lead to a reduction in levels of RA locally. Conversely, DGAT1 deficiency would prevent this sequestration of retinol, leading to elevated RA and Treg induction. […]

Series [1] concerns C57BL/6 mice with MOG35-55-induced EAE. The series is described as follows: EAE induced by active immunization with MOG35-55/CFA, clinical scoring and CNS histology. The class given is in vivo, mouse. As to the method: In addition, administration of a selective DGAT1 inhibitor attenuated MOG35-55-induced EAE. C57BL/6 mice (8 weeks old) were induced to develop EAE by active immunization with MOG35-55/CFA. Twelve days after disease induction (indicated by the arrow), mice were administered vehicle (10% Captisol) or 10 mg/kg DGAT1 inhibitor A922500 once daily via s.c. injection and followed for clinical disease (n=10/group). Clinical data are presented as the mean score ±SEM. The scoring system is as follows: 0, normal or healthy; 1, limp tail; 2, hindlimb weakness; 3, hindlimb paralysis; 4, hindlimb and forelimb paralysis. *P<0.05 (days 14-30) by Mann-Whitney U test.
EAE models. For EAE induction by active immunization, mice (8-10 weeks old) were immunized via subcutaneous (s.c.) injection with 100 μg MOG35-55 emulsified in CFA as described. Mice also received 250 ng pertussis toxin (List Biological Labs) via tail vein injection at the time of MOG35-55/CFA immunization and again 2 days later. Clinical disease was scored as follows: 0=normal or healthy; 1=flaccid tail; 2=hindlimb weakness; 3=hindlimb paralysis; 4=hindlimb and forelimb paralysis; 5=moribund or dead. Where indicated, A922500 was formulated in 10% Captisol vehicle for in vivo dosing via s.c. injection (100 μl volume). Individuals who conducted the clinical scoring were blinded to the treatment that the mice received.
Histology. Brain and spinal cord tissues were fixed in 10% buffered formalin. Paraffin-embedded tissues were then stained with H&E, and CNS inflammatory foci (>10 mononuclear cells/focus) in leptomeninges and parenchyma were counted in each mouse sample in a blinded fashion.
Statistics. The Mann-Whitney U test was applied to analyze nonparametric clinical EAE data, and the Student's t test was used to analyze all parametric data. The Fisher's exact test was used to compare disease incidence.

The subject of a further series is C57BL/6 mice. The series is described as follows: Tolerability observations in treated mice (behavior, leukocytes, organ wet weights and gross morphology). The class given is in vivo, mouse. The conditions noted are these: mice induced to develop EAE, treated from day 12 p.i. The source says:
To address this possibility, we first determined whether pharmacological inhibition of DGAT1 could modulate clinical EAE. […] Suppression of clinical disease was evident as early as 2 days after dosing began and persisted until termination of the experiment at day 30 p.i. (FIG. 3a). Overall, the compound delayed onset of clinical signs by an average of 6 days and reduced disease incidence at day 30 p.i. by 30%. […] Thus, administration of a selective DGAT1 inhibitor attenuates EAE.

For series [2] the following is noted: daily 10 mg/kg; models of obesity; cited from earlier work.
The subject of another series is DGAT1 KO CD4+CD25− cells. Nature of the series: In vitro T regulatory cell induction, DGAT1 KO T cells. The class given is cell-based, mouse. The conditions noted are these: retinol 10 nM; anti-CD3/TGFβ, DGAT1 KO MLN cells, delipidated serum, 3 days. As to the method:
as §1, §2

Setting [3] is: 30 days after EAE induction, mean (SEM), 10 mg/kg s.c. once daily from day 12.

Molecules are shown by their SMILES.

Take `O=C(Nc1ccccc1)Nc1ccc(-c2ccc(C(=O)[C@@H]3CCC[C@H]3C(=O)O)cc2)cc1` [A922500]: the “Difference between DGAT1−/− and WT Treg induction responses to retinol” value in the series with WT CD4+CD25− cells (A922500 100 nM with retinol 10 nM, anti-CD3/TGFβ, 3 days) is “abrogated the difference between DGAT1−/− and WT cell responses”. Besides, the “Time after start of dosing at which suppression of clinical disease was evident” value in series [1] (10 mg/kg daily from day 12 p.i., persisted until day 30 p.i.) was found to be 2 days. Besides, the “Mean maximal score (SEM)” value in series [1] (10 mg/kg s.c. once daily from day 12 p.i., clinical score 0-5) is 1.4 (0.4)^ns. The “Mean day of onset (SEM)” value in series [1] (10 mg/kg s.c. once daily from day 12 p.i., only animals that developed EAE) is on record as 20.1 (1.9)* day. Besides, in series [1] (setting [3]), the “No. of CNS inflammatory foci, Meninges” value was 19.8 (8.8) and the “No. of CNS inflammatory foci, Parenchyma” value is reported as 29.9 (12.4). In addition, the “Delay of onset of clinical signs” value in series [1] (average, versus vehicle, 10 mg/kg daily from day 12 p.i.) came out at 6 days. In addition, the “Effect on clinical EAE” value in series [1] (daily 10 mg/kg, P<0.05 days 14-30 p.i. by Mann-Whitney U test) was “attenuated EAE”. For the same compound, the “Reduction of disease incidence at day 30 p.i.” value in series [1] (versus vehicle, 10 mg/kg daily from day 12 p.i.) is 30%. In the series with C57BL/6 mice, the “Leukocyte numbers or composition within peripheral lymphoid tissues” value is listed as “did not induce overt behavioral changes or significantly alter leukocyte numbers or composition within peripheral lymphoid tissues”; the “Organ toxicity (wet weights and gross morphology of several organs incl. spleen and thymus)” value is recorded as “did not cause detectable organ toxicity”; the Overt behavioral changes result is listed as “did not induce overt behavioral changes”. The “Serum TG levels” value in series [2] is “significantly reduces serum TG levels”.
With `CC1(C)CCC(C)(C)c2cc(C(=O)Nc3ccc(C(=O)O)cc3)ccc21` [AM580], the “Treg induction by RAR agonist” value in the series with WT CD4+CD25− cells (AM580 10 nM, WT and DGAT1 KO cells, DGAT1 deficiency had no significant effect) is “enhanced Treg induction”.
For the compound `CC1=C(/C=C/C(C)=C/C=C/C(C)=C/CO)C(C)(C)CCC1` [retinol, All-trans-retinol], the “Foxp3+ Treg induction” value in the series with DGAT1 KO CD4+CD25− cells is on record as “significantly enhanced”.
